Assay results as given in ChEMBL document CHEMBL4414585, “Inhibition Mechanisms of Indoleamine 2,3-Dioxygenase 1 (IDO1)” (J Med Chem, 2019).
Calls of active or inactive are those of the source. The rule behind the calls is not given here.

Key:
[1] = Dissociation constant, pKa of the compound; format: physicochemical
[2] = target: T1, Indoleamine 2,3-dioxygenase 1 (Homo sapiens, UniProt P14902); assay: Binding affinity to human IDO1 expressed in Escherichia coli Rosetta (DE3) assessed induction of shift in Soret peak in phosphate buffer at 200 uM in presence of ascorbate and MB reductants measured over 4 hrs by UV-vis absorption spectroscopy
Target sequence in this assay (P14902 whole entry, looked up): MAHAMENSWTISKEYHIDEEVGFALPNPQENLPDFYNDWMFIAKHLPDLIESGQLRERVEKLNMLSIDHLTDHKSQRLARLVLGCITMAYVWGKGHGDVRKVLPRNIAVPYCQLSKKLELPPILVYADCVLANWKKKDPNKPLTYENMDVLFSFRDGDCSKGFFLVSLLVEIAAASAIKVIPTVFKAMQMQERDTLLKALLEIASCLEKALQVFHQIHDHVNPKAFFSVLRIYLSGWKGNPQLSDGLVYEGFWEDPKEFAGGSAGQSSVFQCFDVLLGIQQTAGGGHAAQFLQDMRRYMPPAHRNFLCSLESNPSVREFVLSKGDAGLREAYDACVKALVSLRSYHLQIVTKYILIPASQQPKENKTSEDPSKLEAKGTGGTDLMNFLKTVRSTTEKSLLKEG

[3] = target: T1, Indoleamine 2,3-dioxygenase 1; assay: (§1) Inhibition of full-length human IDO1 expressed in Escherichia coli Rosetta (DE3) assessed as reduction in kynurenine production at 0.5 to 1 uM pre-incubated for 120 mins before jump dilution with incubation medium containing L-Trp and further incubated for 20 mins by HPLC analysis
Target sequence in this assay (P14902 whole entry, looked up): as above

[4] = target: T1, Indoleamine 2,3-dioxygenase 1; assay: Inhibition of IDO1 in IFNgamma-induced human HeLa cells incubated for 5 hrs by Ehrlich's reagent based assay; format: cell-based
Target sequence in this assay (P14902 whole entry): as the sequence (P14902 whole entry, looked up) above

[5] = target: T1, Indoleamine 2,3-dioxygenase 1; assay: as §1, with “120 mins in presence of ascorbate and MB reductants and catalase before jump” for “120 mins before jump”
Target sequence in this assay (P14902 whole entry, looked up): as above

[6] = target: T1, Indoleamine 2,3-dioxygenase 1; assay: Binding affinity to human IDO1 expressed in Escherichia coli Rosetta (DE3) assessed induction of shift in Soret peak in phosphate buffer at 200 uM measured over 4 hrs by UV-vis absorption spectroscopy
Target sequence in this assay (P14902 whole entry, looked up): as above

[7] = target: T1, Indoleamine 2,3-dioxygenase 1; assay: Inhibition of purified human recombinant IDO1 expressed in Escherichia coli assessed as reduction in kynurenine production incubated up to 90 mins using L-Trp substrate by Ehrlich's reagent based spectrophotometry
Target sequence in this assay (P14902 whole entry): as the sequence (P14902 whole entry, looked up) above

[8] = target: T1, Indoleamine 2,3-dioxygenase 1; assay: as §1, with “120 mins in presence of ascorbate and MB reductants before jump” for “120 mins before jump”
Target sequence in this assay (P14902 whole entry, looked up): as above

[9] = target: T1, Indoleamine 2,3-dioxygenase 1; assay: (§2) Inhibition of full-length human IDO1 expressed in Escherichia coli Rosetta (DE3) assessed as reduction in kynurenine production at 0.5 to 2.5 uM pre-incubated for 120 mins before jump dilution with incubation medium containing L-Trp and further incubated for 20 mins by HPLC analysis
Target sequence in this assay (P14902 whole entry, looked up): as above

[10] = target: T1, Indoleamine 2,3-dioxygenase 1; assay: as §2, with “120 mins in presence of ascorbate and MB reductants before jump” for “120 mins before jump”
[11] = target: T1, Indoleamine 2,3-dioxygenase 1; assay: as §2, with “120 mins in presence of ascorbate and MB reductants and catalase before jump” for “120 mins before jump”
[12] = target: T1, Indoleamine 2,3-dioxygenase 1; details: 20 to 40 uM
Description: Inhibition of full-length human IDO1 expressed in Escherichia coli Rosetta (DE3) assessed as reduction in kynurenine production at 20 to 40 uM pre-incubated for 120 mins before L-Trp addition in presence of ascorbate and MB reductants by HPLC analysis relative to control

[13] = target: T1, Indoleamine 2,3-dioxygenase 1; details: 20 uM
Description: Inhibition of full-length human IDO1 expressed in Escherichia coli Rosetta (DE3) assessed as reduction in kynurenine production at 20 uM pre-incubated for 120 mins before L-Trp addition by HPLC analysis relative to control

[14] = target: T1, Indoleamine 2,3-dioxygenase 1; details: 40 uM
Description: Inhibition of full-length human IDO1 expressed in Escherichia coli Rosetta (DE3) assessed as reduction in kynurenine production at 40 uM pre-incubated for 120 mins before L-Trp addition by HPLC analysis relative to control

[15] = target: T1, Indoleamine 2,3-dioxygenase 1; details: 20 to 40 uM; remark: listed apart in the source
Description: Inhibition of full-length human IDO1 expressed in Escherichia coli Rosetta (DE3) assessed as reduction in kynurenine production at 20 to 40 uM pre-incubated for 120 mins before L-Trp addition in presence of ascorbate and MB reductants and catalase by HPLC analysis relative to control

[16] = target: T1, Indoleamine 2,3-dioxygenase 1; details: 20 to 40 uM; remark: listed apart in the source
Description: Inhibition of full-length human IDO1 expressed in Escherichia coli Rosetta (DE3) assessed as reduction in kynurenine production at 20 to 40 uM pre-incubated for 120 mins before jump dilution with incubation medium containing L-Trp and further incubated for 20 mins by HPLC analysis

[17] = target: T1, Indoleamine 2,3-dioxygenase 1; assay: Binding affinity to human IDO1 expressed in Escherichia coli Rosetta (DE3) assessed complete protection against heme degradation at 200 uM in presence of ascorbate and MB reductants measured at 45 mins by UV-vis absorption spectroscopy
[18] = target: T1, Indoleamine 2,3-dioxygenase 1; assay: Inhibition of IDO1 (unknown origin) by cell based assay
Target sequence in this assay (P14902 whole entry): as the sequence (P14902 whole entry, looked up) above

[19] = target: T1, Indoleamine 2,3-dioxygenase 1; assay: (§3) Inhibition of full-length human IDO1 expressed in Escherichia coli Rosetta (DE3) assessed as enzyme activity by measuring kynurenine production at 40 to 200 uM pre-incubated for 120 mins in presence of ascorbate and MB reductants before jump dilution with incubation medium containing L-Trp and further incubated for 20 mins by HPLC analysis; set-up: scale not given: the % may be the effect or the level left
[20] = target: T1, Indoleamine 2,3-dioxygenase 1; assay: Inhibition of IDO1 (unknown origin) by enzymatic assay
Target sequence in this assay (P14902 whole entry): as the sequence (P14902 whole entry, looked up) above

[21] = target: T1, Indoleamine 2,3-dioxygenase 1; assay: Inhibition of full-length human IDO1 expressed in Escherichia coli Rosetta (DE3) using L-Trp substrate by HPLC analysis
Target sequence in this assay (P14902 whole entry): as the sequence (P14902 whole entry, looked up) above

[22] = target: T1, Indoleamine 2,3-dioxygenase 1; assay: Selectivity ratio of IC50 for inhibition of IDO1 (unknown origin) by enzymatic assay to IC50 for inhibition of IDO1 (unknown origin) by cell based assay
[23] = target: T1, Indoleamine 2,3-dioxygenase 1; assay: as §3, with “reductants and catalase” for “reductants”
[24] = target: T1, Indoleamine 2,3-dioxygenase 1; assay: Inhibition of full-length human IDO1 expressed in Escherichia coli Rosetta (DE3) assessed as reduction in kynurenine production at 40 to 200 uM pre-incubated for 120 mins before jump dilution with incubation medium containing L-Trp and further incubated for 20 mins by HPLC analysis
[25] = target: T1, Indoleamine 2,3-dioxygenase 1; assay: Binding affinity to human IDO1 expressed in Escherichia coli Rosetta (DE3) assessed induction of shift in Soret peak in phosphate buffer at 200 uM in presence of ascorbate and MB reductants measured over 60 mins by UV-vis absorption spectroscopy (reference value: […] nm)

## Oc1ccc(Cl)cc1-c1c[nH]nn1
[1]
  pKa: 8.3

## CC1(C)CCC2=C(O1)c1ccccc1C(=O)C2=O [LAPACHONE]
[2]
  Activity: inactive
[3]
  inhibition: Active
[4]
  IC50: 1000 nM
[5]
  inhibition: inactive
[6]
  Activity: inactive
[7]
  IC50: 440 nM
[8]
  inhibition: Active

## CC1=CC(=O)c2ccccc2C1=O
[9]
  inhibition: Active
[2]
  Activity: inactive
[10]
  inhibition: Active
[6]
  Activity: inactive
[11]
  inhibition: inactive

## Nc1nonc1/C(=N/O)Nc1ccc(F)c(Cl)c1
[12]
  inhibition: 100%
[13]
  inhibition: 82%
[14]
  inhibition: 65%
[15]
  inhibition: 100%
[16]
  inhibition: Active

## Clc1ccc(Nc2cn[nH]n2)cc1
[17]
  Activity: inactive
[18]
  IC50: 23 nM
[19]
  Activity: 0%
[20]
  IC50: 11300 nM
[21]
  IC50: 70000 nM
[22]
  Ratio IC50: 500
[23]
  inhibition: inactive
[24]
  inhibition: Active
[25]
  Activity: 425 nm
